Read-outs that look alike come from different tables or passages of the source.
Experiments:
A549 = assay: Bulk cancer cells, Cell Titer-Glo 72 hours (Test Example 2); type: cell-based; conditions: Homo sapiens
Experimental: (§1) Tubes of 3× drug (60 uM in 500 uL complete media) were prepared from 5 mM stock solutions in DMSO. […] To treat cells, 50 uL of drug from the dilution plate was removed and added to the cell plates. […] Cells were harvested 72 hours after drug addition using Cell Titer-Glo (Promega) and luminescence measured on a plate reader.

ACHN = assay: as above; type: cell-based; conditions: Homo sapiens, ACHN, 72 h
Experimental: as §1

FaDu = assay: as above; type: cell-based; conditions: Homo sapiens
Experimental: as §1

p-AMPK Thr172 = assay: Kinase inhibition, Western blot in HeLa cells (Test Example 5); type: cell-based; conditions: Homo sapiens, 6 hours, DMSO = 100, read-out: p-AMPK Relative Intensity (%)
Experimental: (§2) HeLa cells were treated with 5 uM of the indicated compound for 6 hours. Following compound incubation, cells were washed twice with ice-cold PBS and lysed in lysis buffer (50 mM HEPES, pH 7.5, 1% Nonidet P40, 150 mM NaCl, 1 mM EDTA, 1× protease inhibitor cocktail (Promega)). 30 micrograms of soluble protein was separated by SDS-PAGE and transferred to PVDF membranes. Primary antibodies against p-AMPK Thr172, p-RPS6 Ser235/236, p-RPS6 Ser240/244, and Tubulin (Cell Signaling Technology) were used. The antigen-antibody complexes were visualized by enhanced chemiluminescence (BioRad). The results are shown below in Tables 17A-17E.

p-RPS6 Ser240/244 = assay: as above; type: cell-based; conditions: Homo sapiens, 6 hours, DMSO = 100, read-out: p-RPS6 Ser240/244 Relative Intensity (%)
Experimental: as §2

p-RPS6 Ser235/236 = assay: as above; type: cell-based; conditions: Homo sapiens, 6 hours, DMSO = 100, read-out: p-RPS6 Ser235/236 Relative Intensity (%)
Experimental: as §2

A549 CSC = assay: Cancer stem cells, Cell Titer-Glo 72 hours (Test Example 3); type: cell-based; conditions: Homo sapiens
human RIOK2 protein = molecular target: T1, human RIOK2 protein (Homo sapiens, UniProt Q9BVS4); assay: RIOK2 autophosphorylation ELISA (Test Example 4); type: biochemical
T1 construct: glutathione S-transferase is fused to N-terminal of a full-length human RIOK2 protein; GST (glutathione S-transferase) (N); purchased CarnaBio, Inc; host or cells: baculovirus-Sf21 cell expression system
T1 sequence (Q9BVS4 whole entry, the tested form may be a part): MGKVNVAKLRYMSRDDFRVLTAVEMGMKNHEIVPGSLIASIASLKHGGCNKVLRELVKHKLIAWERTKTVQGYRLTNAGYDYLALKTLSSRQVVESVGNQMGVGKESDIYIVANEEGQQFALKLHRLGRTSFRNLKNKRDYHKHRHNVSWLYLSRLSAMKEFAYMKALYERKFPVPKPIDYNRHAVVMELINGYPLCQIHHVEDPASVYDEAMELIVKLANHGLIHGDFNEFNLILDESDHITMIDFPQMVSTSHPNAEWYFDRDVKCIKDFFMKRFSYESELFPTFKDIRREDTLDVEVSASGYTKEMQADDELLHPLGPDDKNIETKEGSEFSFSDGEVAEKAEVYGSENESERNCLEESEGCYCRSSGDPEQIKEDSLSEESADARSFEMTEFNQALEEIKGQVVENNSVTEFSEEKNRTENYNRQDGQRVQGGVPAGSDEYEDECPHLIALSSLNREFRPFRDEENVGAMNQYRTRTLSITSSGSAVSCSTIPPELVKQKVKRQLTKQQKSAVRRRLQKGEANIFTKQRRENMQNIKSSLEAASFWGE
Experimental: A protein in which glutathione S-transferase is fused to N-terminal of a full-length human RIOK2 protein was used as a recombinant human RIOK2 protein. The protein was prepared using a baculovirus-Sf21 cell expression system from CarnaBio, Inc. A kinase reaction solution was prepared by mixing 25 μg/mL of the recombinant human RIOK2 protein and 100 μM of ATP in 20 μl of kinase reaction buffer (50 mM Tris-HCl, 10 mM MgCl2, 10 mM MnCl2, 1 mM DTT, 0.01% Brij, 1× PhosSTOP (manufactured by Roche Applied Science)), and was incubated at a temperature of 30° C. for 1 hour. After adding 30 μl of 40 mM EDTA solution to this kinase reaction solution, the kinase reaction solution was transferred to a MaxiSorp 96 well plate (manufactured by Nunc). Thereafter, phosphorylated human RIOK2 protein was allowed to adsorb onto the wells by leaving the plate in a refrigerator overnight.
The following day, the supernatant was removed, and the wells were washed three times with ELISA buffer (20 mM Tris-HCl, 150 mM NaCl, 0.2% Tween-20, 0.1% BSA). Thereafter, 100 μl of Blocking-One P (product name; manufactured by Nacalai Tesque, Inc.) was applied to the wells, and a blocking treatment was performed for 1 hour at room temperature. […] After further washing the wells, a secondary antibody, anti-rabbit IgG conjugated with horseradish peroxidase (manufactured by Jackson ImmunoResearch; 1/4000 ELISA buffer-diluted solution), was applied to the wells, and incubation was performed for 30 minutes at room temperature. After washing the wells once again, 50 μl of tetramethyl benzidine (TMB) aqueous solution (manufactured by Nacalai Tesque, Inc.) was applied to the wells, and a coloring reaction was performed for 30 minutes at room temperature. Thereafter, the coloring reaction was stopped by adding 50 μl of 2M H2SO4 to the wells. An absorptiometric level of 450 nm was measured in each well using ARVO SX (manufactured by Wallac).

ACHN CSC = assay: Cancer stem cells, Cell Titer-Glo 72 hours (Test Example 3); type: cell-based; conditions: Homo sapiens, ACHN, 72 h
FaDu CSC = assay: as above; type: cell-based; conditions: Homo sapiens, FaDu, 72 h

SMILES	IC50 (A549) [nM]	IC50 (ACHN) [nM]	IC50 (FaDu) [nM]	IC50 (A549 CSC) [nM]	inhibition at 1 µM (human RIOK2 protein; read-out: Inhibitory activity at 1 μM (%)) [%]	inhibition at 10 µM (human RIOK2 protein; read-out: Inhibitory activity at 10 μM (%)) [%]	IC50 (ACHN CSC) [nM]	IC50 (FaDu CSC) [nM]	activity at 5 µM (p-AMPK Thr172; 5 uM) [%]	activity at 5 µM (p-RPS6 Ser240/244; 5 uM) [%]	activity at 5 µM (p-RPS6 Ser235/236; 5 uM) [%]	activity at 5 µM (p-AMPK Thr172; 5 uM compound, Western blot) [%]	activity at 5 µM (p-RPS6 Ser240/244; 5 uM compound, Western blot) [%]	activity at 5 µM (p-RPS6 Ser235/236; 5 uM compound, Western blot) [%]
CCN(CC)CCNC(=O)c1c(C)[nH]c(/C=C2\C(=O)Nc3c2cccc3-c2cncc(C)c2)c1C [Example 283]	3360	1680	6230	2230			1970	2200				50	59	47
CCN(CC)CCNC(=O)c1c(C)[nH]c(/C=C2\C(=O)Nc3c2cccc3-c2ccncc2)c1C [Example 284]	6850	6390	6740	12600			4990	4410				56	65	60
CCN(CC)CCNC(=O)c1c(C)[nH]c(/C=C2\C(=O)Nc3c2cccc3-c2cccnc2OC)c1C [Example 286]	5320	3640	3810	6870			2710	1920				31	54	48

Stronger by IC50 (A549), values ahead:

IC50 (A549) [nM]	IC50 (ACHN) [nM]	IC50 (FaDu) [nM]	IC50 (A549 CSC) [nM]	inhibition at 1 µM (human RIOK2 protein; read-out: Inhibitory activity at 1 μM (%)) [%]	inhibition at 10 µM (human RIOK2 protein; read-out: Inhibitory activity at 10 μM (%)) [%]	IC50 (ACHN CSC) [nM]	IC50 (FaDu CSC) [nM]	SMILES	activity at 5 µM (p-AMPK Thr172; 5 uM) [%]	activity at 5 µM (p-RPS6 Ser240/244; 5 uM) [%]	activity at 5 µM (p-RPS6 Ser235/236; 5 uM) [%]	activity at 5 µM (p-AMPK Thr172; 5 uM compound, Western blot) [%]	activity at 5 µM (p-RPS6 Ser240/244; 5 uM compound, Western blot) [%]	activity at 5 µM (p-RPS6 Ser235/236; 5 uM compound, Western blot) [%]
2530	1640	2530	11700	53	91	220	1650	Cc1[nH]c(/C=C2\C(=O)Nc3ccc(-c4cnn(-c5ccccn5)c4)cc32)c(C)c1C(=O)NCCN1CCCC1 [Example 33]	52	92	82			
2910	3000	2770	3900			1860	2060	CCN(CC)CCNC(=O)c1c(C)[nH]c(/C=C2\C(=O)Nc3c2cccc3-c2ccc3cc[nH]c3c2)c1C [Example 285]				39	44	29

— patent US20190241569A1, “3-(ARYL OR HETEROARYL) METHYLENEINDOLIN-2-ONE DERIVATIVES AS INHIBITORS OF CANCER STEM CELL PATHWAY KINASES FOR THE TREATMENT OF CANCER” (Boston Biomedical, Inc., priority 2013, published 2019)
